One assay addresses T1, Estrogen receptor (Homo sapiens, UniProt P03372).
T1 sequence (P03372 whole entry): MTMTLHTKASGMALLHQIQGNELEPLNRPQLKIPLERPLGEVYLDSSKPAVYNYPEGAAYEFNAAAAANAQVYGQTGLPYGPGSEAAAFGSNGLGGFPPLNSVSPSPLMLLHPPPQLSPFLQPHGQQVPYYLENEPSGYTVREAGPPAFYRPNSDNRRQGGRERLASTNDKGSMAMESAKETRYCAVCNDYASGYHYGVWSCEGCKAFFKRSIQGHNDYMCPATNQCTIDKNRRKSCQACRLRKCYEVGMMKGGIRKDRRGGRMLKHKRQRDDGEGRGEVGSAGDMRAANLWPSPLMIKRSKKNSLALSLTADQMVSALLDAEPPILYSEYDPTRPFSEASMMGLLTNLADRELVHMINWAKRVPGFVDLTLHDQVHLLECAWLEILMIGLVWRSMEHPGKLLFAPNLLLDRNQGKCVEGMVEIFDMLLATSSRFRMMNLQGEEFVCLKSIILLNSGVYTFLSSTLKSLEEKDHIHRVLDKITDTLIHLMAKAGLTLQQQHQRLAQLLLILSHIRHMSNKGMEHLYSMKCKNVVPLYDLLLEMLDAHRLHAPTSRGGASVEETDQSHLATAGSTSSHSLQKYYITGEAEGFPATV

Another assay has as its target Estrogen receptor beta (Homo sapiens, UniProt Q92731).

Sequence of Estrogen receptor beta (Q92731 whole entry): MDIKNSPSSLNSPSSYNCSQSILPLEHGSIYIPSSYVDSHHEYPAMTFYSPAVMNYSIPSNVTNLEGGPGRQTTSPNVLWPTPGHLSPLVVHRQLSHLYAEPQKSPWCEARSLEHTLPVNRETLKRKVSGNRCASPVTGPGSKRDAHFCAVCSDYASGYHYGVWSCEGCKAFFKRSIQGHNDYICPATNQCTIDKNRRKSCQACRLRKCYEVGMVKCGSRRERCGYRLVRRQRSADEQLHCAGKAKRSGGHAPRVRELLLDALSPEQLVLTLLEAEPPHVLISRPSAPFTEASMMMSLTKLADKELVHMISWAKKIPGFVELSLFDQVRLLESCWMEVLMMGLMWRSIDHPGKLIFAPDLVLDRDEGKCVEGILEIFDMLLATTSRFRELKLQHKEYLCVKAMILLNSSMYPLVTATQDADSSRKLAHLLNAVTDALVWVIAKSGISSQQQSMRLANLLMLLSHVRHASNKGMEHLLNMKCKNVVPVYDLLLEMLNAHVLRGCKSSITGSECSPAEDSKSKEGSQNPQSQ

Usually Ki stands for the equilibrium dissociation constant of an inhibitor or competing ligand from its target. As to `CC(C)Cc1cc2cc(O)ccc2c(Oc2ccc(/C=C/C(=O)O)cc2)c1-c1ccccc1`, the Ki came out at 28 nM on Estrogen receptor and 22 nM at Estrogen receptor beta.

Take `CCCCCCCCc1cc2cc(O)ccc2c(Oc2ccc(/C=C/C(=O)O)cc2)c1-c1ccccc1`: the figures for the Ki at Estrogen receptor and on Estrogen receptor beta were 55 nM and 30 nM, respectively.

Consider `CCCCc1cc2ccccc2c(Oc2ccc(/C=C/C(=O)O)cc2)c1-c1ccc(O)cc1`, for which the Ki on Estrogen receptor was determined as 52 nM; at Estrogen receptor beta, 48 nM.

As to `CCCCc1cc2ccccc2c(Oc2ccc(/C=C/C(=O)O)cc2)c1-c1ccccc1`, the Ki at Estrogen receptor was 977 nM; on Estrogen receptor beta, 170 nM.

As to `CCCCc1cc2ccccc2c(Oc2ccc(/C=C/C(=O)O)cc2)c1-c1ccc(OC)cc1`, the values for the Ki on Estrogen receptor and on Estrogen receptor beta were 158 nM and 162 nM, respectively.

For the molecule `CCCCc1cc2cc(O)ccc2c(Oc2ccc(/C=C/C(=O)O)cc2)c1-c1ccccc1`, the Ki at Estrogen receptor and at Estrogen receptor beta was 4 nM in each case.

Regarding `COCc1cc2ccccc2c(Oc2ccc(/C=C/C(=O)O)cc2)c1-c1ccccc1`, the Ki on Estrogen receptor amounted to 692 nM; at Estrogen receptor beta it was 501 nM.

As for `O=C(O)/C=C/c1ccc(Oc2c(-c3ccccc3)c(C3CC3)cc3cc(O)ccc23)cc1`, the Ki worked out at 60 nM on Estrogen receptor and 16 nM on Estrogen receptor beta.

On to `CCCCc1cc2ccccc2c(Oc2ccc(/C=C/C(=O)O)cc2)c1-c1ccc(F)cc1`, for which the Ki on Estrogen receptor stood at 724 nM; on Estrogen receptor beta, 110 nM.

Regarding `CCCCCc1cc2cc(O)ccc2c(Oc2ccc(/C=C/C(=O)O)cc2)c1-c1ccccc1`, the Ki was 2 nM on Estrogen receptor and 3 nM at Estrogen receptor beta.

Source of the values: ChEMBL document CHEMBL1144155, “Synthesis of 3-alkyl naphthalenes as novel estrogen receptor ligands” (Bioorg Med Chem Lett, 2008).
